Target: proBFT-3 (Bacteroides fragilis, UniProt O86049)
Experiment: isothermal titration calorimetry
Assay type: binding

Sequence of proBFT-3 (O86049 18-397 limits assumed): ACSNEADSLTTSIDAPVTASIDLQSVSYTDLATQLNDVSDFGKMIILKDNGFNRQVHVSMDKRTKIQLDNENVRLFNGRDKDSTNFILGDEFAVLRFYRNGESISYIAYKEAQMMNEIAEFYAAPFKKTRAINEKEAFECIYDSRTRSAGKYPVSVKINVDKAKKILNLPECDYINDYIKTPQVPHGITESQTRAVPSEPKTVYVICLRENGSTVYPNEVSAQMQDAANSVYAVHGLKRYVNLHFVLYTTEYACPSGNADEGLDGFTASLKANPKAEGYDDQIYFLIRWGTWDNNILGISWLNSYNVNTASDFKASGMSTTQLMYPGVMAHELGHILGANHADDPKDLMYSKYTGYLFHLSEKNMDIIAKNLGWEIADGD

Row | Kd [µM] | SMILES
1 | 20 | C[C@@H]1CCc2cc(F)cc3c(=O)c(C(=O)O)cn1c23 [C-4, flumequine]
2 | 22 | COc1ccc([C@@H]2CC(=O)c3c(O)cc(O)cc3O2)cc1O [C-10, hesperetin]

Source: publication PMC9514063 (Protein Science : A Publication of the Protein Society, 2022)
